Test results as given in patent publication US20080214518A1, “Pharmaceutical Composition Comprising an Anti-Bacterial Agent and an Active Ingredient Selected From Carveol, Thymol, Eugenol, Borneol and Carvacrol” (priority 2005, published 2008).
Converted amounts (≈) assume the structure as drawn. Like-named read-outs stand apart in the source and are kept apart here.

How the values were obtained:
[1] = system: Bacillus subtilis; assay: Static tests to determine MIC and MBC; format: cell-based; conditions: for MIC: antibiotic alone
Description: (§1) The experiment was carried out with several Gram-negative and Gram-positive bacterial strains with different susceptibilities isolated in the hospital environment.
(§2) Antibacterial pharmaceutical compositions according to the invention were prepared by mixing amoxicillin at different concentrations with carveol at a sub-inhibitory concentration of 0.3 g per liter of solution or excipient (equivalent to 0.3 mg/ml). The minimal concentration of amoxicillin in combination with carveol 0.3 mg/ml that produced a bactericidal effect was determined. In each case, antibiotic activity was determined either with amoxicillin alone, or with carveol alone, or with the composition of the invention.
(§3) The experiment was carried out with several resistant bacterial strains isolated in the hospital environment. The antibiotic used was ampicillin, from the beta-lactam family, which is one of the most widely used antibiotics. An antibiotic pharmaceutical composition according to the invention was prepared by mixing ampicillin at different concentrations with carveol at a sub-inhibitory concentration of 0.3 g per liter of solution or excipient. This pharmaceutical composition of the invention was named Ampi-P, for potentiated ampicillin. In each case, antibiotic activity was determined either with ampicillin alone, or with carveol alone, or with the composition of the invention.
(§4) The experiment was carried out with several resistant bacterial strains isolated in the hospital environment. The antibiotic used was cephazolin, from the cephalosporin family, another class of beta-lactams which are among the most widely used antibiotics. An antibiotic pharmaceutical composition according to the invention was prepared by mixing cephazolin at different concentrations with alpha-ionone and beta-ionone at a sub-inhibitory concentration of 0.3 g per liter of solution or excipient. This pharmaceutical composition of the invention was named Cepha-P, for potentiated cephazolin. In each case, antibiotic activity was determined either with cephazolin alone, or with alpha-ionone or beta-ionone alone, or with the composition of the invention.
as §3, with “polymyxin B,” for “ampicillin,”, “peptide” for “beta-lactam”, “oldest” for “most widely used”, “polymyxin B” for “ampicillin”, “Polymix-P,” for “Ampi-P,”, “polymyxin B.” for “ampicillin.”
as §3, with “chloramphenicol,” for “ampicillin,”, “phenicol” for “beta-lactam”, “oldest” for “most widely used”, “chloramphenicol” for “ampicillin”, “Chloram-P,” for “Ampi-P,”, “chloramphenicol.” for “ampicillin.”
(§5) The experiment was carried out with several resistant bacterial strains isolated in the hospital environment. The antibiotic used was chlortetracycline, one of the oldest antibiotics. An antibiotic pharmaceutical composition according to the invention was prepared by mixing chlortetracycline at different concentrations with carveol at a sub-inhibitory concentration of 0.3 g per liter of solution or excipient.

[2] = system: Escherichia coli; assay: Static tests to determine MIC and MBC; format: cell-based; conditions: for MIC: antibiotic alone
Description: as §1, §2, §3, §4
as §3, with “polymyxin B,” for “ampicillin,”, “peptide” for “beta-lactam”, “oldest” for “most widely used”, “polymyxin B” for “ampicillin”, “Polymix-P,” for “Ampi-P,”, “polymyxin B.” for “ampicillin.”
as §3, with “chloramphenicol,” for “ampicillin,”, “phenicol” for “beta-lactam”, “oldest” for “most widely used”, “chloramphenicol” for “ampicillin”, “Chloram-P,” for “Ampi-P,”, “chloramphenicol.” for “ampicillin.”
as §5

[3] = system: Salmonella typhimurium; assay: Static tests to determine MIC and MBC; format: cell-based; conditions: for MIC: antibiotic alone
Description: as §1, §2, §3, §4
as §3, with “polymyxin B,” for “ampicillin,”, “peptide” for “beta-lactam”, “oldest” for “most widely used”, “polymyxin B” for “ampicillin”, “Polymix-P,” for “Ampi-P,”, “polymyxin B.” for “ampicillin.”
as §3, with “chloramphenicol,” for “ampicillin,”, “phenicol” for “beta-lactam”, “oldest” for “most widely used”, “chloramphenicol” for “ampicillin”, “Chloram-P,” for “Ampi-P,”, “chloramphenicol.” for “ampicillin.”
as §5

[4] = system: Staphylococcus epidermidis; assay: Static tests to determine MIC and MBC; format: cell-based; conditions: for MIC: antibiotic alone
Description: as §1
as §2, with “invention. […]” for “invention.”

[5] = system: Klebsiella pneumoniae; assay: Static tests to determine MBC; format: cell-based; conditions: carveol alone, Table 1
Description: as §1, §2

[6] = system: Staphylococcus aureus; assay: Static tests to determine MIC and MBC; format: cell-based; conditions: for MBC: carveol alone; for MIC: antibiotic alone
Description: as §1, §2
as §5, with “excipient. […] In each case, antibiotic activity was determined either with chlortetracycline alone, or with carveol alone, or with the composition of the invention.” for “excipient.”
as §3, with “streptomycin, an important member of” for “ampicillin, from”, “aminoside family” for “beta-lactam family,”, “among” for “one of”, “important” for “widely used”, “streptomycin” for “ampicillin”, “This pharmaceutical composition of the invention was named Ampi-P, for potentiated ampicillin.” left out
as §3, with “erythromycin, an important member of” for “ampicillin, from”, “macrolide family” for “beta-lactam family,”, “among” for “one of”, “important” for “widely used”, “erythromycin” for “ampicillin”, “This pharmaceutical composition of the invention was named Ampi-P, for potentiated ampicillin.” left out

[7] = system: bacterial strains isolated in the hospital environment; assay: Static MIC/MBC tests, potentiation over all tested strains; format: cell-based; conditions: antibiotic combined with carveol, alpha-ionone or beta-ionone at 0.3 mg/ml
Description: as §1, §2
The experiment was carried out with several resistant bacterial strains isolated in the hospital environment. The antibiotic used was ampicillin, from the beta-lactam family, which is one of the most widely used antibiotics. […] In each case, antibiotic activity was determined either with ampicillin alone, or with carveol alone, or with the composition of the invention.
The experiment was carried out with several resistant bacterial strains isolated in the hospital environment. […] In each case, antibiotic activity was determined either with cephazolin alone, or with alpha-ionone or beta-ionone alone, or with the composition of the invention.
The experiment was carried out with several resistant bacterial strains isolated in the hospital environment. […] This pharmaceutical composition of the invention was named Polymix-P, for potentiated polymyxin B. In each case, antibiotic activity was determined either with polymyxin B alone, or with carveol alone, or with the composition of the invention.
The experiment was carried out with several resistant bacterial strains isolated in the hospital environment. […] In each case, antibiotic activity was determined either with chloramphenicol alone, or with carveol alone, or with the composition of the invention. […]

[8] = system: Mycobacterium fleii; assay: Static tests to determine MIC and MBC; format: cell-based; conditions: for MIC: antibiotic alone, exponential growth phase
[9] = system: Mycobacterium fortuitum; assay: Static tests to determine MIC and MBC; format: cell-based; conditions: Mycolicibacterium fortuitum; for MIC: antibiotic alone, exponential growth phase
[10] = system: resistant mycobacterial strains isolated in a veterinary environment; assay: Static MIC/MBC tests, potentiation over tested mycobacterial strains; format: cell-based; conditions: antibiotic combined with carvacrol or thymol at 0.3 mg/ml
[11] = system: amoxicillin-resistant Klebsiella pneumoniae; assay: In vivo test in mice experimentally infected by intraperitoneal injection; conditions: organs of mice which died during the experiment; amoxicillin alone 10 mg/kg/day by gavage
Description: Groups of 10 mice were experimentally infected by intraperitoneal injection of 1,000,000 cells (colony-forming units) of amoxicillin-resistant Klebsiella pneumoniae.
The first group was composed of control mice which were infected and untreated.
The second group was composed of infected mice treated by gavage, 24 h post-infection, with amoxicillin alone at a dose of 10 mg/kg of body weight/day.
The third group was composed of infected mice treated by gavage, 24 h post-infection, with carveol alone at a dose of 120 mg/kg of body weight/day.
The fourth group was composed of infected mice treated by gavage, 24 h post-infection, with the pharmaceutical composition of the invention (AMOX-P) at a dose of 2 mg/kg of body weight/day of amoxicillin and 120 mg/kg of body weight/day of carveol.
The survival rate was measured over time. […] All the other mice died between the second and third day post-infection.

[12] = system: Escherichia coli strains susceptible to 5 μg/ml amoxicillin; format: cell-based
Description: Escherichia coli strains susceptible to 5 μg/ml amoxicillin were cultured in the presence of a sub-inhibitory concentration of 3 μg/ml, then seeded into nutrient medium (Muller Hinton) containing increasing concentrations of amoxicillin (4 then 5 then 6 μg/ml . . . ). The same procedure was carried out with amoxicillin potentiated by carvacrol at a concentration two times lower than the MIC of carvacrol alone, namely 500 μg/ml. This experiment was based on the principle that at each subcloning, a mutant resistant to the new amoxicillin concentration would multiply, giving rise to a strain more resistant than the strain from which the subcloning arose.

[13] = Bacillus subtilis, exponential growth phase, read-out: MIC
[14] = Escherichia coli, exponential growth phase, read-out: MIC
[15] = Salmonella enterica, TYPHIMURIUM, exponential growth phase, read-out: MIC
[16] = Staphylococcus epidermidis, exponential growth phase, read-out: MIC
[17] = first substance alone, exponential growth phase
[18] = Staphylococcus aureus, exponential growth phase
[19] = starting from 3 μg/ml, potentiated: carvacrol 500 μg/ml

Compound: CC1(C)S[C@@H]2[C@H](NC(=O)[C@H](N)c3ccccc3)C(=O)N2[C@H]1C(=O)O [Ampicillin, ampicillin]
- MIC [1, 13]: > 50 µg/mL
- MIC [2, 14]: > 50 µg/mL
- MIC [3, 15]: > 50 µg/mL
- MIC [4, 16]: > 50 µg/mL

Compound: CC(=O)/C=C/C1=C(C)CCCC1(C)C [Beta-ionone, beta-ionone]
- MBC [1, 17]: 2000 µg/mL
- MBC [2, 17]: 2000 µg/mL
- MBC [3, 17]: 2000 µg/mL
- MBC [4, 17]: 2000 µg/mL

Compound: polymyxin B
- MIC ([1]; exponential growth phase): >50 µg/mL
- MIC ([2]; exponential growth phase): >50 µg/mL
- MIC ([3]; exponential growth phase): 25 µg/mL
- MIC ([4]; exponential growth phase): >50 µg/mL

Compound: C=C(C)C1CC=C(C)C(O)C1 (mixture of isomers) [Carveol, carveol]
- MBC [5]: 2000 µg/mL
- MBC ([1]; Bacillus subtilis, carveol alone, Table 1, read-out: MBC): 2000 µg/mL
- MBC [1, 17]: 2000 µg/mL
- MBC ([2]; Escherichia coli, carveol alone, Table 1, read-out: MBC): 2000 µg/mL
- MBC [2, 17]: 2000 µg/mL
- MBC ([3]; Salmonella enterica, TYPHIMURIUM, carveol alone, Table 1, read-out: MBC): 2000 µg/mL
- MBC [3, 17]: 2000 µg/mL
- MBC ([4]; Staphylococcus epidermidis, carveol alone, Table 1, read-out: MBC): 2000 µg/mL
- MBC [4, 17]: 2000 µg/mL
- MBC ([6]; Staphylococcus aureus, Table 1, read-out: MBC): 2000 µg/mL
- MBC ([6]; exponential growth phase): 2000 µg/mL

Compound: Cc1nnc(SCC2=C(C(=O)O)N3C(=O)[C@@H](NC(=O)Cn4cnnn4)[C@H]3SC2)s1 [Cephazolin, cephazolin]
- MIC ([1]; exponential growth phase): >50 µg/mL
- MIC ([2]; exponential growth phase): >50 µg/mL
- MIC ([3]; exponential growth phase): >50 µg/mL
- MIC ([4]; exponential growth phase): >50 µg/mL
- times lower antibiotic concentration producing bactericidal activity versus antibiotic alone [7]: at least ten

Compound: O=C(N[C@H](CO)[C@H](O)c1ccc([N+](=O)[O-])cc1)C(Cl)Cl [Chloramphenicol, chloramphenicol]
- MIC [1, 13]: > 50 µg/mL
- MIC [2, 14]: > 50 µg/mL
- MIC [3, 15]: > 50 µg/mL
- MIC [4, 16]: > 50 µg/mL

Compound: NNC(=O)c1ccncc1 [Isoniazide, isoniazide]
- MIC [8]: > 50 µg/mL
- MIC [9]: > 50 µg/mL
- times lower antibiotic concentration producing bactericidal activity versus antibiotic alone [10]: at least 25 times

Compound: CC(=O)/C=C/C1C(C)=CCCC1(C)C (stereo not drawn) [Alpha-ionone, alpha-ionone]
- MBC [1, 17]: 2000 µg/mL
- MBC [2, 17]: 2000 µg/mL
- MBC [3, 17]: 2000 µg/mL
- MBC [4, 17]: 2000 µg/mL

Compound: CO[C@H]1/C=C/O[C@@]2(C)Oc3c(C)c(O)c4c(O)c(c(/C=N/N5CCN(C)CC5)c(O)c4c3C2=O)NC(=O)/C(C)=C\C=C\[C@H](C)[C@H](O)[C@@H](C)[C@@H](O)[C@@H](C)[C@H](OC(C)=O)[C@@H]1C [Rifampicin, rifampicin]
- MIC [8]: > 75 µg/mL
- MIC [9]: > 75 µg/mL
- times lower antibiotic concentration producing bactericidal activity versus antibiotic alone [10]: at least 25 times

Compound: Cc1ccc(C(C)C)cc1O [Carvacrol, carvacrol]
- MBC [8]: 1000 µg/mL (≈ 6.66 mM)
- MBC [9]: 1000 µg/mL (≈ 6.66 mM)

Compound: [H]/N=C(/N)N[C@H]1[C@H](O)[C@@H](O)[C@H](O[C@@H]2O[C@@H](C)[C@](O)(C=O)[C@H]2O[C@@H]2O[C@@H](CO)[C@H](O)[C@@H](O)[C@@H]2NC)[C@@H](N/C(N)=N\[H])[C@@H]1O [Streptomycin, streptomycin]
- MIC [1, 13]: > 50 µg/mL
- MIC [2, 14]: > 50 µg/mL
- MIC [3, 15]: > 50 µg/mL
- MIC [6, 18]: > 50 µg/mL
- times lower antibiotic concentration producing bactericidal activity versus antibiotic alone [7]: at least 10 times

Compound: CC1(C)S[C@@H]2[C@H](NC(=O)[C@H](N)c3ccc(O)cc3)C(=O)N2[C@H]1C(=O)O [Amoxicillin, amoxicillin]
- Klebsiella pneumoniae loads in kidney, lung and bone marrow [11]: high loads
- Final conc. (to which resistant mutants were selected) ([12]; 50 μg/ml was the highest concentration in the experiment): 50 µg/mL
- No. of subclonings (to reach final conc.) ([12]; starting from 3 μg/ml): 9
- Median conc. (to which resistant mutants were selected) [12, 19]: 17 µg/mL
- No. of subclonings (to reach median conc.) [12, 19]: 4

Compound: CN(C)[C@@H]1C(O)=C(C(N)=O)C(=O)[C@@]2(O)C(O)=C3C(=O)c4c(O)ccc(Cl)c4[C@@](C)(O)[C@H]3C[C@@H]12 [Chlortetracycline, chlortetracycline]
- MIC [1, 13]: > 50 µg/mL
- MIC [2, 14]: > 50 µg/mL
- MIC [3, 15]: > 50 µg/mL
- MIC [6, 18]: > 50 µg/mL

Compound: CC[C@H]1OC(=O)[C@H](C)[C@@H](O[C@H]2C[C@@](C)(OC)[C@@H](O)[C@H](C)O2)[C@H](C)[C@@H](O[C@@H]2O[C@H](C)C[C@H](N(C)C)[C@H]2O)[C@](C)(O)C[C@@H](C)C(=O)[C@H](C)[C@@H](O)[C@]1(C)O [Erythromycin, erythromycin]
- MIC [1, 13]: > 50 µg/mL
- MIC [2, 14]: > 50 µg/mL
- MIC [3, 15]: > 50 µg/mL
- MIC [6, 18]: > 50 µg/mL
- times lower antibiotic concentration producing bactericidal activity versus antibiotic alone [7]: two to five
